Patent US11083197B2, “Herbicidal composition comprising chromone derivatives and a method for weed control” (INVESTIGACIONES BIOLÓGICAS EN AGROQUÍMICOS ROSARIO S.A., priority 2015, dated 2021)

Experiments:
[1] = test system: A. cepa root meristem cells; assay: Effect on cell division (mitotic index analysis); assay type: cell-based, Allium cepa; details: for inhibition of cell division: 0 to 1000 μM; for reversibility of inhibition of cellular division: 100 μM, seeds washed at 3 days; for proportion of cells with abnormal configurations: chromosome aberrations, nuclear abnormalities, micronuclei
Method: Onion seeds (Allium Cepa L. Evergreen Longwhite Bunching, Burpee & Co, 2012, EE.UU) germination was carried out for 7 days with a 14-h photoperiod in 9-cm-diameter Petri dishes on a filter paper disk that was moistened with a dilution (2.5 mL) of test compound or control. Stock solutions of test compounds (100×) were prepared in acetone, and aliquots were diluted in distilled water to get the final concentration. The control consisted of water with the same proportion of acetone (1% v/v) applied in the treatments.
At 7 days of incubation, samples were processed for mitotic index analysis according to Armbruster et al.^25 Twenty root tips (1-cm sections) were fixed in glacial acetic acid:absolute ethanol (1:3 v/v) for 30 min. The segments were incubated with 5 N HCl at 25° C. for 1 h, and washed several times with distilled water. After that, segments were stained with Schiff's reagent for 45 min in the dark at 25° C. Stained meristematic regions were identified as purple tips. The root segments were transferred with tweezers to a drop of 45% acetic acid in water on a microscope slide. The tips were cut with a razor blade, and a cover slip was carefully placed over the tips and gently squashed by applying slight and constant pressure directly over the tissues. The edge of the cover slip was sealed with nail polish to delay the evaporation of acetic acid. The mitotic index was calculated by tallying the cells in various stages of mitosis. At least 1,000 cells/slide and in triplicate (3,000 cells per treatment) were counted for suitable statistical analysis of data. An Olympus BX60 microscope (Olympus, Center Valley) was used, and cells with abnormal mitotic configurations were counted as a separate class.
This procedure was slightly modified to evaluate if cell division inhibition caused by furanochromones was reversible. For this experiment onion seeds were incubated with solutions containing compounds of formulas III and IV for 3 days. After this period, all seeds were washed three times with distilled water and placed in new Petri dishes on moistened filter paper disks with distilled water (Wash+treatment). Seeds were then incubated for 4 more days, after which a mitotic index analysis was performed. As a reference to compare results, another set of onion seeds was kept with test compounds or control for 7 days (Wash−treatment) before analysis.

[2] = test system: ryegrass; assay: Postemergence bioassay with ryegrass in Petri dishes; assay type: in vivo; details: Lolium multiflorum, post-emergence; 500 μM; day 6 (4 days after application); read-out: Growth inhibition (%) as percentage of control
Method: Plant length was measured at day 6 (4 days after application of the compounds)
Plant length's axis starts in 5 mm because seeds were pre-incubated in water, so all seedlings were around 5 mm long at the beginning of the treatment.

[3] = test system: cucumber leaf disks; assay: Cell death determination by Evans blue staining, leaf disks; assay type: cell-based; details: 7 days; for increase in relative cell death with respect to the control: 100 μM; for increase in relative cell death: 300 μM
Method: To evaluate cell death in roots, onion seeds were germinated and treated as described in postemergence assay with weed species. Onion seedlings were exposed to different doses of compounds of formulas III and IV (0, 100 and 300 μM) during 4 days. For the experiment with leaf disks 3-weeks-cucumber plants were used. One disk (1 cm) was placed in each well of a 12-well plate together with 1 mL of a 2% w/v sucrose/1 mM MES, pH 6.5 solution containing each of the compounds tested at the appropriate concentration (0, 100 or 300 μM) and acetone (1% v/v). Each assay was performed with leaf disks from different plants. Plates were sealed with Parafilm and incubated in a growth chamber at 21-27° C. with a 16/8 h light/dark cycle for 7 days.
Cell death was determined by Evans blue staining.^26 Root tips (5-mm sections) and leaf disks were incubated for 30 min in 0.25% w/v Evans blue aqueous solution at 25° C. on a rotary shaker. After staining, unbound dye was removed by extensive washing with deionized water. Three root tips (3 replicates) or one leaf disk (4 replicates) were ground in a tissue grind tube with 500 μL 1% w/v sodium dodecyl sulfate (SDS). The resulting suspension was centrifuged for 20 min at 20,000 g and the supernatant was used for dye quantification by monitoring the absorbance at 600 and 680 nm. Relative cell death was expressed as A600 for root tips and A600/A680 ratios for leaf disks.

[4] = test system: cucumber cotyledon disks; assay: Electrolyte leakage assay; assay type: cell-based; details: for destabilization of cell membranes, electrolyte leakage / electrolyte leakage versus boiled positive control: 100 and 300 μM; for electrolyte leakage versus boiled positive control: 16 h dark plus 26 h of high light intensity
Method: The effects of pure furanochromones, compounds of formulas III and IV (Sigma Aldrich), on membrane stability were studied as described by Dayan and Watson.^23 Cucumber cotyledon disks were exposed to each furanochromone at 100 and 300 μM. Control tissues were exposed to the same solvent as treated tissues but without the compounds. Conductivity measurements were carried out at the beginning of the dark incubation period, a second measurement was made after 16 h, at which time the samples were placed under high light intensity, and final measurements were made after 8 and 26 h of light exposure. Each experiment consisted of three replicates. Maximum conductivity was measured by boiling three samples of each treatment for 20 min. To study if electrolyte leakage caused by compounds of formulas III and IV was light-dependent, two sets of Petri plates were prepared with cucumber cotyledon disks exposed to test compounds and control in both. One set was treated as described before (dark 16 h/light 26 h) while the other one was kept in darkness for 42 h. Conductivity measurements were done at the indicated times.

[5] = test system: lettuce; assay: Postemergence bioassay with lettuce in Petri dishes; assay type: in vivo; details: Lactuca sativa, post-emergence, day 6 (4 days after postemergence application), read-out: Average growth inhibition (%) as percentage of control; for inhibition at 500 µM: 0.50 mM; for inhibition at 1000 µM: 1.00 mM; for inhibition at 1500 µM: 1.50 mM
Method: Compounds of formula III and IV above were tested at different concentrations in a postemergence bioassay (in Petri dishes) against lettuce. Lettuce seeds were pre-incubated in Petri dishes with a filter paper and water for 2 days. After that, seedlings (15 mm approx.) were moved to a new Petri dish containing 4 mL of an aqueous solution of each compound or commercial herbicide. Plants length was measured at day 6 (4 days after postemergence application of the compounds). The results were compared to those obtained with acetochlor and glyphosate.
Plant length's axis starts in 15 mm because seeds were pre-incubated in water, so all seedlings were around 15 mm long at the beginning of the treatment.

[6] = test system: ryegrass, barnyardgrass, crabgrass, foxtail, millet, morningglory and velvetleaf; assay: Pre-emergence bioassay in Petri dishes against different weeds; assay type: in vivo; details: 0.5 and 1.0 mM
Method: Compounds of Formulas III and IV above were tested in a pre-emergence bioassay (in Petri dishes) against different weeds at 0.5 and 1.0 mM. The seeds of different weeds were placed in Petri dishes with a filter paper and 4 mL of an aqueous solution of each compound or commercial herbicide.
Plant length was measured at 7 days of incubation.

Compound: COc1c2occc2c(OC)c2c(=O)cc(C)oc12 [Formula III, 4,9-dimethoxy-7-methyl-5H-furo[3,2-g]chromen-5-one]
- inhibition of cell division ([1]; 7 days): inhibited cell division in a dose-dependent manner
- reversibility of inhibition of cellular division [1]: irreversible
- proportion of cells with abnormal configurations [1]: higher than in the control
- inhibition at 500 µM [2]: 25%
- increase in relative cell death with respect to the control [3]: ~35%
- increase in relative cell death [3]: 3.5 fold
- destabilization of cell membranes, electrolyte leakage [4]: significant electrolyte leakage
- electrolyte leakage versus boiled positive control [4]: comparable to the positive control
- inhibition at 500 µM [5]: 22%
- inhibition at 1000 µM [5]: 85%
- inhibition at 1500 µM [5]: 91%
- effect on growth and germination of different weeds [6]: strongly interfered

Compound: COc1c2ccoc2cc2oc(C)cc(=O)c12 [Formula IV, 4-methoxy-7-methyl-5H-furo[3,2-g]chromen-5-one]
- inhibition of cell division ([1]; 7 days): inhibited cell division in a dose-dependent manner
- reversibility of inhibition of cellular division [1]: irreversible
- inhibition of onion cell division ([1]; 300 μM, 7 days): completely inhibited
- proportion of cells with abnormal configurations [1]: higher than in the control
- inhibition at 500 µM [2]: 66%
- increase in relative cell death with respect to the control [3]: ~35%
- increase in relative cell death [3]: 3.5 fold
- electrolyte leakage ([4]; 100 μM, after 8 h in the light): caused electrolyte leakage
- destabilization of cell membranes, electrolyte leakage [4]: significant electrolyte leakage
- electrolyte leakage versus boiled positive control [4]: comparable to the positive control
- inhibition at 500 µM [5]: 22%
- inhibition at 1000 µM [5]: 85%
- inhibition at 1500 µM [5]: 91%
- effect on growth and germination of different weeds [6]: strongly interfered
